Patent US9376425B2, “Heterocyclic compounds as MDM2 inhibitors for the treatment of cancer” (AMGEN INC., priority 2011, dated 2016)
pIC50: −log10 of the molar value.

Biological target: T1, human MDM2 (GST-hMDM2 1-188), interaction with biotinylated-p53 (1-83) (Homo sapiens, UniProt Q00987)
T1 construct: Amino acid residues 1-188 of human MDM2 were expressed; made in house; host or cells: Escherichia coli
Assay: improved HTRF assay (HTRF2 assay), inhibition of HDM2-p53 interaction
Type: binding
Conditions: 0.2 nM GST-hMDM2, 0.5 nM biotinylated-p53, 100 mM KF
Summary of the method: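 GST-hMDM2 preincubated 20 min at RT with serially diluted compound, then biotinylated p53 (1-83, E. coli) added for 60 min. Detection with SA-XLent, anti-GST cryptate and KF, equilibrated >4 h; final DMSO 2%. TR-FRET read; % inhibition calculated relative to nutlin-3.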

T1 sequence (Q00987 1-188): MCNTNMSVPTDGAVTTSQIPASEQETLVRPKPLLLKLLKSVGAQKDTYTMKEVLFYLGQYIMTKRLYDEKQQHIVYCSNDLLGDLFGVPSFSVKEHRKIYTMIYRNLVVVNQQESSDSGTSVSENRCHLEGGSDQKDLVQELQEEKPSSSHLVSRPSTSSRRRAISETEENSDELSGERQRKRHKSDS

Structure (SMILES) | pIC50
CC[C@@H](CN(c1ccccc1F)S(=O)(=O)C1CC1)N1C(=O)[C@H](CC(=O)NS(=O)(=O)C(C)C)O[C@H](c2cccc(Cl)c2)[C@H]1c1ccc(Cl)cc1 (single isomer, unassigned) [Example 258, 2-((2S,5R,6R)-6-(3-chlorophenyl)-5-(4-chlorophenyl)-4-((S)-1-(N-(2-fluorophenyl)cyclopropanesulfonamido)butan-2-yl)-3-oxomorpholin-2-yl)-N-(isopropylsulfonyl)acetamide or 2-((2R,5R,6R)-6-(3-chlorophenyl)-5-(4-chlorophenyl)-4-((5)-1-(N-(2-fluorophenyl)cyclopropanesulfonamido)butan-2-yl)-3-oxomorpholin-2-yl)-N-(isopropylsulfonyl)acetamide] | 9.00
CC[C@@H](CN(c1ccccc1F)S(=O)(=O)C1CC1)N1C(=O)[C@@H](CC(=O)NS(=O)(=O)C(C)C)O[C@H](c2cccc(Cl)c2)[C@H]1c1ccc(Cl)cc1 (single isomer, unassigned) [Example 259, 2-((2R,5R,6R)-6-(3-chlorophenyl)-5-(4-chlorophenyl)-4-((S)-1-(N-(2-fluorophenyl)cyclopropanesulfonamido)butan-2-yl)-3-oxomorpholin-2-yl)-N-(isopropylsulfonyl)acetamide or 2-((2S,5R,6R)-6-(3-chlorophenyl)-5-(4-chlorophenyl)-4-((S)-1-(N-(2-fluorophenyl)cyclopropanesulfonamido)butan-2-yl)-3-oxomorpholin-2-yl)-N-(isopropylsulfonyl)acetamide] | 9.00
CC[C@@H](CS(=O)(=O)C(C)(C)C)N1C(=O)[C@H](CC(N)=O)O[C@H](c2cccc(Cl)c2)[C@H]1c1ccc(Cl)cc1 (single isomer, unassigned) [Example 260, 2-((2S,5R,6R)-4-((S)-1-(tert-butylsulfonyl)butan-2-yl)-6-(3-chlorophenyl)-5-(4-chlorophenyl)-3-oxomorpholin-2-yl)acetamide or 2-((2R,5R,6R)-4-((S)-1-(tert-butylsulfonyl)butan-2-yl)-6-(3-chlorophenyl)-5-(4-chlorophenyl)-3-oxomorpholin-2-yl)] | 8.10
CC[C@@H](CS(=O)(=O)C(C)(C)C)N1C(=O)[C@@H](CC(N)=O)O[C@H](c2cccc(Cl)c2)[C@H]1c1ccc(Cl)cc1 (single isomer, unassigned) [Example 261, 2-((2R,5R,6R)-4-((S)-1-(tert-butylsulfonyl)butan-2-yl)-6-(3-chlorophenyl)-5-(4-chlorophenyl)-3-oxomorpholin-2-yl)acetamide or 2-((2S,5R,6R)-4-((S)-1-(tert-butylsulfonyl)butan-2-yl)-6-(3-chlorophenyl)-5-(4-chlorophenyl)-3-oxomorpholin-2-yl)acetamide] | 8.22
CC[C@@H](CN(c1ccccc1F)S(=O)(=O)C1CC1)N1C(=O)[C@@H](CCC(=O)O)O[C@H](c2cccc(Cl)c2)[C@H]1c1ccc(Cl)cc1 (single isomer, unassigned) [Example 262, 3-((2R,5R,6R)-6-(3-chlorophenyl)-5-(4-chlorophenyl)-4-((S)-1-(N-(2-fluorophenyl)cyclopropanesulfonamido)butan-2-yl)-3-oxomorpholin-2-yl)propanoic acid or 3-((2S,5R,6R)-6-(3-chlorophenyl)-5-(4-chlorophenyl)-4-((S)-1-(N-(2-fluorophenyl)cyclopropanesulfonamido)butan-2-yl)-3-oxomorpholin-2-yl)propanoic acid] | 8.70
CC[C@@H](CN(c1ccccc1F)S(=O)(=O)C1CC1)N1C(=O)[C@@H](CCC(=O)O)O[C@H](c2cccc(Cl)c2)[C@H]1c1ccc(Cl)cc1 (single isomer, unassigned) [Example 263, 3-((2R,5R,6R)-6-(3-chlorophenyl)-5-(4-chlorophenyl)-4-((S)-1-(N-(2-fluorophenyl)cyclopropanesulfonamido)butan-2-yl)-3-oxomorpholin-2-yl)propanoic acid or 3-((2S,5R,6R)-6-(3-chlorophenyl)-5-(4-chlorophenyl)-4-((S)-1-(N-(2-fluorophenyl)cyclopropanesulfonamido)butan-2-yl)-3-oxomorpholin-2-yl)propanoic acid] | 8.70
CC[C@@H](CN(c1ccccc1Cl)S(=O)(=O)C1CC1)N1C(=O)[C@@H](CC(=O)O)O[C@H](c2cccc(Cl)c2)[C@H]1c1ccc(Cl)cc1 (single isomer, unassigned) [Example 264, 2-((2R,5R,6R)-6-(3-chlorophenyl)-5-(4-chlorophenyl)-4-((S)-1-(N-(2-chlorophenyl)cyclopropanesulfonamido)butan-2-yl)-3-oxomorpholin-2-yl)acetic acid or 2-((2S,5R,6R)-6-(3-chlorophenyl)-5-(4-chlorophenyl)-4-((S)-1-(N-(2-chlorophenyl)cyclopropanesulfonamido)butan-2-yl)-3-oxomorpholin-2-yl)acetic acid] | 7.72
CC[C@@H](CN(c1ccccc1Cl)S(=O)(=O)C1CC1)N1C(=O)[C@@H](CC(=O)O)O[C@H](c2cccc(Cl)c2)[C@H]1c1ccc(Cl)cc1 (single isomer, unassigned) [Example 265, 2-((2R,5R,6R)-6-(3-chlorophenyl)-5-(4-chlorophenyl)-4-((S)-1-(N-(2-chlorophenyl)cyclopropanesulfonamido)butan-2-yl)-3-oxomorpholin-2-yl)acetic acid or 2-((2S,5R,6R)-6-(3-chlorophenyl)-5-(4-chlorophenyl)-4-((S)-1-(N-(2-chlorophenyl)cyclopropanesulfonamido)butan-2-yl)-3-oxomorpholin-2-yl)acetic acid] | 9.00
CC(C)(C)S(=O)(=O)C[C@H](C1CCC1)N1C(=O)[C@@H](CC(=O)O)O[C@H](c2cccc(Cl)c2)[C@H]1c1ccc(Cl)cc1 (single isomer, unassigned) [Example 270, 2-((2R,5R,6R)-4-((S)-2-(tert-Butylsulfonyl)-1-cyclobutylethyl)-6-(3-chlorophenyl)-5-(4-chlorophenyl)-3-oxomorpholin-2-yl)acetic acid or 2-((2S,5R,6R)-4-((S)-2-(tert-butylsulfonyl)-1-cyclobutylethyl)-6-(3-chlorophenyl)-5-(4-chlorophenyl)-3-oxomorpholin-2-yl)acetic acid] | 8.70
CC(C)(C)S(=O)(=O)C[C@H](C1CCC1)N1C(=O)[C@@H](CC(=O)O)O[C@H](c2cccc(Cl)c2)[C@H]1c1ccc(Cl)cc1 (single isomer, unassigned) [Example 271, 2-((2R,5R,6R)-4-((S)-2-(tert-Butylsulfonyl)-1-cyclobutylethyl)-6-(3-chlorophenyl)-5-(4-chlorophenyl)-3-oxomorpholin-2-yl)acetic acid or 2-((2S,5R,6R)-4-((S)-2-(tert-butylsulfonyl)-1-cyclobutylethyl)-6-(3-chlorophenyl)-5-(4-chlorophenyl)-3-oxomorpholin-2-yl)acetic acid] | 8.30
CC(C)(C)S(=O)(=O)C[C@@H](C1CCC1)N1C(=O)[C@@H](CC(=O)O)O[C@H](c2cccc(Cl)c2)[C@H]1c1ccc(Cl)cc1 (single isomer, unassigned) [Example 272, 2-((2R,5R,6R)-4-((R)-2-(tert-Butylsulfonyl)-1-cyclobutylethyl)-6-(3-chlorophenyl)-5-(4-chlorophenyl)-3-oxomorpholin-2-yl)acetic acid or 2-((2S,5R,6R)-4-((R)-2-(tert-butylsulfonyl)-1-cyclobutylethyl)-6-(3-chlorophenyl)-5-(4-chlorophenyl)-3-oxomorpholin-2-yl)acetic acid] | 6.81
CC(C)(C)S(=O)(=O)C[C@@H](C1CCC1)N1C(=O)[C@@H](CC(=O)O)O[C@H](c2cccc(Cl)c2)[C@H]1c1ccc(Cl)cc1 (single isomer, unassigned) [Example 273, 2-((2R,5R,6R)-4-((R)-2-(tert-Butylsulfonyl)-1-cyclobutylethyl)-6-(3-chlorophenyl)-5-(4-chlorophenyl)-3-oxomorpholin-2-yl)acetic acid or 2-((2S,5R,6R)-4-((R)-2-(tert-butylsulfonyl)-1-cyclobutylethyl)-6-(3-chlorophenyl)-5-(4-chlorophenyl)-3-oxomorpholin-2-yl)acetic acid] | 7.02
O=C(O)C[C@H]1O[C@H](c2cccc(Cl)c2)[C@@H](c2ccc(Cl)cc2)N([C@H](CN(c2ccccc2F)S(=O)(=O)C2CC2)C(F)(F)F)C1=O (single isomer, unassigned) [Example 274] | 8.40
O=C(O)C[C@H]1O[C@H](c2cccc(Cl)c2)[C@@H](c2ccc(Cl)cc2)N([C@H](CN(c2cc(F)ccc2F)S(=O)(=O)C2CC2)C2CC2)C1=O (single isomer, unassigned) [Example 275, 2-((2R,5R,6R)-6-(3-Chlorophenyl)-5-(4-chlorophenyl)-4-((S)-1-cyclopropyl-2-(N-(2,5-difluorophenyl)cyclopropanesulfonamido)ethyl)-3-oxomorpholin-2-yl)acetic acid or 2-((2S,5R,6R)-6-(3-chlorophenyl)-5-(4-chlorophenyl)-4-((S)-1-cyclopropyl-2-(N-(2,5-difluorophenyl)cyclopropanesulfonamido)ethyl)-3-oxomorpholin-2-yl)acetic acid] | > 9.00
O=C(O)C[C@H]1O[C@H](c2cccc(Cl)c2)[C@@H](c2ccc(Cl)cc2)N([C@H](CN(c2cc(F)ccc2F)S(=O)(=O)C2CC2)C2CC2)C1=O (single isomer, unassigned) [Example 276, 2-((2R,5R,6R)-6-(3-Chlorophenyl)-5-(4-chlorophenyl)-4-((S)-1-cyclopropyl-2-(N-(2,5-difluorophenyl)cyclopropanesulfonamido)ethyl)-3-oxomorpholin-2-yl)acetic acid or 2-((2S,5R,6R)-6-(3-chlorophenyl)-5-(4-chlorophenyl)-4-((S)-1-cyclopropyl-2-(N-(2,5-difluorophenyl)cyclopropanesulfonamido)ethyl)-3-oxomorpholin-2-yl)acetic acid] | > 9.00
